Source: ChEMBL document CHEMBL1152560, “Substituted 2-arylbenzothiazoles as kinase inhibitors: hit-to-lead optimization” (Bioorg Med Chem, 2009)

Assays:
[1] = target: Ephrin type-A receptor 5 (Homo sapiens) (UniProt P54756); assay: Residual activity of EPHA5 at 1 uM by microplate scintillation counting
[2] = target: T1, Ephrin type-B receptor 1 (Homo sapiens) (UniProt P54762); assay: Residual activity of EPHB1 at 10 uM by microplate scintillation counting
T1 sequence (whole entry): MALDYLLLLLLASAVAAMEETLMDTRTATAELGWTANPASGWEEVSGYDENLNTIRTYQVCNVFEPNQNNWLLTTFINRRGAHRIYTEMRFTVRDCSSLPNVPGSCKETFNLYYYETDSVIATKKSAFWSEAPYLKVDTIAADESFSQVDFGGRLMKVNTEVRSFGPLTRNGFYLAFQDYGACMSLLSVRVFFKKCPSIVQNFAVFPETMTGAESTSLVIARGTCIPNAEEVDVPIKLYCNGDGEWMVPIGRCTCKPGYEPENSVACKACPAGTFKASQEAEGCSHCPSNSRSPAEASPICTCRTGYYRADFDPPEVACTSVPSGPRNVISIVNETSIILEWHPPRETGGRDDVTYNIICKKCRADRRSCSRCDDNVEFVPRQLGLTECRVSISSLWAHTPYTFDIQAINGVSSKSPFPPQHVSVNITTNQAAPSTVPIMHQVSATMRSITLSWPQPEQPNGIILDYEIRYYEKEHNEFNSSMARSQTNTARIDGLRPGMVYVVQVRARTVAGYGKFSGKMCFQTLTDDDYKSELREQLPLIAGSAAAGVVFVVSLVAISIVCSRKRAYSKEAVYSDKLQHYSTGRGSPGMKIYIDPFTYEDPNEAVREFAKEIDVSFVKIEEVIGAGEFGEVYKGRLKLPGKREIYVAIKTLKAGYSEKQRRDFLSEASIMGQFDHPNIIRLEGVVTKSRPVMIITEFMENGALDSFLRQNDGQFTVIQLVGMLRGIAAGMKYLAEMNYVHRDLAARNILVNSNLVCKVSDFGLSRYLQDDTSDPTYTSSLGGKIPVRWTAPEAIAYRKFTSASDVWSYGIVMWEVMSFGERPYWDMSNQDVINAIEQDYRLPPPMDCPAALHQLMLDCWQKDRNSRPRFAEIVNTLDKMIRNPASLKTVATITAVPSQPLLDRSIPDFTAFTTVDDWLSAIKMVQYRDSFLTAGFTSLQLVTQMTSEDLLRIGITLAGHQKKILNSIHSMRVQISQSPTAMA

[3] = target: T2, Megakaryocyte-associated tyrosine-protein kinase (Homo sapiens) (UniProt P42679); assay: Residual activity of MATK at 10 uM by microplate scintillation counting
T2 sequence (whole entry): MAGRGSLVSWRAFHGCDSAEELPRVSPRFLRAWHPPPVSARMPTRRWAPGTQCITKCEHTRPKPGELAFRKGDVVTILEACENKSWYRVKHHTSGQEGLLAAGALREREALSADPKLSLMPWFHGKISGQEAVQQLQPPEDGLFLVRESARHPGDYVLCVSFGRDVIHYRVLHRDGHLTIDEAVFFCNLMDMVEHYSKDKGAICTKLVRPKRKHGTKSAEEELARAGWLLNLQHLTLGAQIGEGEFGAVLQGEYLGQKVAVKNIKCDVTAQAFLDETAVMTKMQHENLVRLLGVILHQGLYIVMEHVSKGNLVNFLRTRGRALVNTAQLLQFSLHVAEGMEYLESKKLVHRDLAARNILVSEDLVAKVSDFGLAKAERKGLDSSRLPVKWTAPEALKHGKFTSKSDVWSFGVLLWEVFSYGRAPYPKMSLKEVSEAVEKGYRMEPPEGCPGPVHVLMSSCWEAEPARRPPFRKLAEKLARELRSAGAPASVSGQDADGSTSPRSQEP

[4] = target: Dual specificity protein kinase CLK1 (Homo sapiens) (UniProt P49759); assay: Residual activity of CLK1 at 0.1 uM by microplate scintillation counting
Sequence of Dual specificity protein kinase CLK1 (Homo sapiens) (P49759 whole entry, looked up): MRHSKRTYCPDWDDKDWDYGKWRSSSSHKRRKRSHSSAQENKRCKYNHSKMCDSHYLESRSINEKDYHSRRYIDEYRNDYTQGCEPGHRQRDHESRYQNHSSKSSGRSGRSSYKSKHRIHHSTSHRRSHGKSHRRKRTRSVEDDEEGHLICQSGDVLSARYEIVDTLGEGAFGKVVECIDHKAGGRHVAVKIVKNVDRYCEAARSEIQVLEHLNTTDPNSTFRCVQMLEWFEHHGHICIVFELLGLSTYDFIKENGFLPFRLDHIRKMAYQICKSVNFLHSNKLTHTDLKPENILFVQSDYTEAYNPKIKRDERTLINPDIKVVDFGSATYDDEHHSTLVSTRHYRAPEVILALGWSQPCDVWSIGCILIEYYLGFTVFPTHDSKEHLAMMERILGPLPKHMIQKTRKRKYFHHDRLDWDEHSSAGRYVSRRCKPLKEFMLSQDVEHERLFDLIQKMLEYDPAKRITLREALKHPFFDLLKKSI

[5] = target: Serine/threonine-protein kinase WNK2 (Homo sapiens) (UniProt Q9Y3S1); assay: Residual activity of WNK2 at 10 uM by microplate scintillation counting
[6] = target: Ribosomal protein S6 kinase alpha-3 (Homo sapiens) (UniProt P51812); assay: Residual activity of RPS6KA3 at 10 uM by microplate scintillation counting
Sequence of Ribosomal protein S6 kinase alpha-3 (Homo sapiens) (P51812 whole entry): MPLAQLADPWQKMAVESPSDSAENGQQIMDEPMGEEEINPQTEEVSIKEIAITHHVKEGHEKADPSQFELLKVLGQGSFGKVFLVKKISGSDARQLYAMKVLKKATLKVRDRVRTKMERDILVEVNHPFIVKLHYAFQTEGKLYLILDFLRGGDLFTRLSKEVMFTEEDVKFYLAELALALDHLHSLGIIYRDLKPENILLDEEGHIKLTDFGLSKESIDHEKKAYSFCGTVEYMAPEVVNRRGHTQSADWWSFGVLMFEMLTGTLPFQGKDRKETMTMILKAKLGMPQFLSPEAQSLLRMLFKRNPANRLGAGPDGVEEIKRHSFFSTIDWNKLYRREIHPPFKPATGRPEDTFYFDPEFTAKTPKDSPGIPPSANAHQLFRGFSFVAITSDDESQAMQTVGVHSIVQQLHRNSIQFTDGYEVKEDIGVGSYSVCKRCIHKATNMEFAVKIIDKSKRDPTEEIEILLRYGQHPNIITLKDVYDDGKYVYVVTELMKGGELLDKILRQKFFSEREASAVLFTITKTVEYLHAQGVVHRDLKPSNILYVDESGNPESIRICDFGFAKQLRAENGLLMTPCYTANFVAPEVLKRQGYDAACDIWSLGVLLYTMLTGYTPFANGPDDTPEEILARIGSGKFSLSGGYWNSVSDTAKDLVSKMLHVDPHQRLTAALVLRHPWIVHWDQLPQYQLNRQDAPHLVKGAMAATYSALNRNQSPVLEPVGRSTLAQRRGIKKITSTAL

[7] = target: T3, Interleukin-1 receptor-associated kinase 4 (Homo sapiens) (UniProt Q9NWZ3); assay: Residual activity of IRAK4 at 0.1 uM by microplate scintillation counting
T3 sequence (whole entry): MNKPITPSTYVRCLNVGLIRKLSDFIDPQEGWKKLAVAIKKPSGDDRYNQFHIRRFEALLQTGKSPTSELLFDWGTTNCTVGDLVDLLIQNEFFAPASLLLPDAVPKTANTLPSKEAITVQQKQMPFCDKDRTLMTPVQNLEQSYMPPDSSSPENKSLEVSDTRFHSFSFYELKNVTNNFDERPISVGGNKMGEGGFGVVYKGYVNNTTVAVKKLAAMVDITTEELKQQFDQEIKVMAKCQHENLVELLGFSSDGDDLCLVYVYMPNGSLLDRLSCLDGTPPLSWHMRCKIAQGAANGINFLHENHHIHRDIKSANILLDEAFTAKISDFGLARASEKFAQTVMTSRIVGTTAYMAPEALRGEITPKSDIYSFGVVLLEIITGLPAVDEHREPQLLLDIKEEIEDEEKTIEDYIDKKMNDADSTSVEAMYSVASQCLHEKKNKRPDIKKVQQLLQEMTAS

[8] = target: Tyrosine-protein kinase JAK2 (Homo sapiens) (UniProt O60674); assay: Residual activity of JAK2 at 1 uM by microplate scintillation counting
Sequence of Tyrosine-protein kinase JAK2 (Homo sapiens) (O60674 whole entry): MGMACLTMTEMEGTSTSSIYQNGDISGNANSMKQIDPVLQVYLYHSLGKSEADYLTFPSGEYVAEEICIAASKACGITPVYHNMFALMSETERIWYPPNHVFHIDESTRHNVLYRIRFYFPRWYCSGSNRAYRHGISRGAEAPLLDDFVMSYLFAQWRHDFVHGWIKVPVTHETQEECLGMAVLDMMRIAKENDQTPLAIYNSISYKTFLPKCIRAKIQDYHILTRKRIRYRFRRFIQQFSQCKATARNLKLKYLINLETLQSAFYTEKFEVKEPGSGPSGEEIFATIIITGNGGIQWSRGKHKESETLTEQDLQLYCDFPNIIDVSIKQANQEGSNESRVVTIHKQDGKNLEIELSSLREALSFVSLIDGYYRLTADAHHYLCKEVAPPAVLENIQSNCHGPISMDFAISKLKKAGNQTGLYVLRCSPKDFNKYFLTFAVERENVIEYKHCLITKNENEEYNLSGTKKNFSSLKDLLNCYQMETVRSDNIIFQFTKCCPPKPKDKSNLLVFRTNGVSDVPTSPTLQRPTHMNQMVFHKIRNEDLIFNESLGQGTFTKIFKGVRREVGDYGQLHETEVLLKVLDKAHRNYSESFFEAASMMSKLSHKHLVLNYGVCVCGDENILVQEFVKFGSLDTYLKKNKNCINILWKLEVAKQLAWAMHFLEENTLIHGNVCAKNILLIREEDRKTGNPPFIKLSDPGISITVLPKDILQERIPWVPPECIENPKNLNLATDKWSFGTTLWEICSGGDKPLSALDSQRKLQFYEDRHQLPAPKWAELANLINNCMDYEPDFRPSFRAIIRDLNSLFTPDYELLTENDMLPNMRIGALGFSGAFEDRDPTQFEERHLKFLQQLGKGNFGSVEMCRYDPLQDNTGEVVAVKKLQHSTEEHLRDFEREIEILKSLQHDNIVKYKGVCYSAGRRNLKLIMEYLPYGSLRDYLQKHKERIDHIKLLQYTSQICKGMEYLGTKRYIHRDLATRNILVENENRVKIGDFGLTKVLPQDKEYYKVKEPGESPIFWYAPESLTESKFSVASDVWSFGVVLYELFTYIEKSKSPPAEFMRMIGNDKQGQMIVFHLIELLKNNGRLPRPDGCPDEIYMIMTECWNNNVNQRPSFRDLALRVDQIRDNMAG

[9] = target: T4, Activin receptor type-1 (Homo sapiens) (UniProt Q04771); assay: Residual activity of ACV-R1 at 10 uM by microplate scintillation counting
T4 sequence (whole entry): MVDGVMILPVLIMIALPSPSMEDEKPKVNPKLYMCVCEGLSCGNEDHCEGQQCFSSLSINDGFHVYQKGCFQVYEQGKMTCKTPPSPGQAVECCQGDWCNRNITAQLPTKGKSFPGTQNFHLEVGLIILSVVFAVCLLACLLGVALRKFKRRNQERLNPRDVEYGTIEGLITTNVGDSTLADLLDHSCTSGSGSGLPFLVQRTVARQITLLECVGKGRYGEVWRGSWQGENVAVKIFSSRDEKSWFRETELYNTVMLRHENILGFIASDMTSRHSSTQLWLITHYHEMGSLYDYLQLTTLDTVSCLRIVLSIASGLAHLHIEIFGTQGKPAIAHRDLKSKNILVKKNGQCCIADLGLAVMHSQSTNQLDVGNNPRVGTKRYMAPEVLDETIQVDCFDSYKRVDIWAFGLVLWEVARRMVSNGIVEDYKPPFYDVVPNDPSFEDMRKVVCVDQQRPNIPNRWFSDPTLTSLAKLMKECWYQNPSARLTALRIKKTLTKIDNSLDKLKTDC

[10] = target: Wee1-like protein kinase (Homo sapiens) (UniProt P30291); assay: Residual activity of WEE1 at 0.1 uM by microplate scintillation counting
Sequence of Wee1-like protein kinase (Homo sapiens) (P30291 whole entry, looked up): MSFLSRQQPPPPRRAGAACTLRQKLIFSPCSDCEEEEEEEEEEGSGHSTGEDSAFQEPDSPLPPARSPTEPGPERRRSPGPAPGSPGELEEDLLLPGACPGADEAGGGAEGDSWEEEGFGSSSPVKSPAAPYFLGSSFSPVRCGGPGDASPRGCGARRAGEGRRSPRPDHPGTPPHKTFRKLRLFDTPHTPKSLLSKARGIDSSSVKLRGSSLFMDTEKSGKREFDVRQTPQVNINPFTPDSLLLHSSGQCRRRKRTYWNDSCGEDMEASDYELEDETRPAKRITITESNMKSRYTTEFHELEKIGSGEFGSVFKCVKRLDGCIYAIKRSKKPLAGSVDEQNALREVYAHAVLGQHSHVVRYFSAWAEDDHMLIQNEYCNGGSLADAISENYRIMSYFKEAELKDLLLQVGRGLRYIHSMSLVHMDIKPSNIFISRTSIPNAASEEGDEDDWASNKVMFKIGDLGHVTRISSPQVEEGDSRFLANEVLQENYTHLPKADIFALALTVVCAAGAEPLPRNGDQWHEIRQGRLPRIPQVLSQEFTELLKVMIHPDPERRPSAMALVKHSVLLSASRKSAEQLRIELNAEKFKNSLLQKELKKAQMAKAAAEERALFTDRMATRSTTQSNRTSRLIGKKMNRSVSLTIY

[11] = target: Serine/threonine-protein kinase PAK 1 (Homo sapiens) (UniProt Q13153); assay: Residual activity of PAK1 at 0.1 uM by microplate scintillation counting
Sequence of Serine/threonine-protein kinase PAK 1 (Homo sapiens) (Q13153 whole entry): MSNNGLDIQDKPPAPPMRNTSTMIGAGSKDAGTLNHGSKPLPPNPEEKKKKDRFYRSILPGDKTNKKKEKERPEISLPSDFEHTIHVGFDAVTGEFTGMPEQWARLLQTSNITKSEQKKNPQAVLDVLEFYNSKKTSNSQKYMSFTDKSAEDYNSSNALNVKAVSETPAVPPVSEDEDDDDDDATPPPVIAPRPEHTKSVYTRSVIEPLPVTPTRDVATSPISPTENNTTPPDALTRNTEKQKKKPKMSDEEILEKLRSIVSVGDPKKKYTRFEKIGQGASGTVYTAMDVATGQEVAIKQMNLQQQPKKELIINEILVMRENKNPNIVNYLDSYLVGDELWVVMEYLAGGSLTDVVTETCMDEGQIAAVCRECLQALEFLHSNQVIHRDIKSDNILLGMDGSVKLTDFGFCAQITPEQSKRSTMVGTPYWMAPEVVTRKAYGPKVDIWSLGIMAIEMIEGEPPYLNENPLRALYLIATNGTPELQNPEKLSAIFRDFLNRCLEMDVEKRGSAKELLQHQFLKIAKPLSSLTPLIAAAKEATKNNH

Sequence of Ephrin type-A receptor 5 (Homo sapiens) (P54756 whole entry): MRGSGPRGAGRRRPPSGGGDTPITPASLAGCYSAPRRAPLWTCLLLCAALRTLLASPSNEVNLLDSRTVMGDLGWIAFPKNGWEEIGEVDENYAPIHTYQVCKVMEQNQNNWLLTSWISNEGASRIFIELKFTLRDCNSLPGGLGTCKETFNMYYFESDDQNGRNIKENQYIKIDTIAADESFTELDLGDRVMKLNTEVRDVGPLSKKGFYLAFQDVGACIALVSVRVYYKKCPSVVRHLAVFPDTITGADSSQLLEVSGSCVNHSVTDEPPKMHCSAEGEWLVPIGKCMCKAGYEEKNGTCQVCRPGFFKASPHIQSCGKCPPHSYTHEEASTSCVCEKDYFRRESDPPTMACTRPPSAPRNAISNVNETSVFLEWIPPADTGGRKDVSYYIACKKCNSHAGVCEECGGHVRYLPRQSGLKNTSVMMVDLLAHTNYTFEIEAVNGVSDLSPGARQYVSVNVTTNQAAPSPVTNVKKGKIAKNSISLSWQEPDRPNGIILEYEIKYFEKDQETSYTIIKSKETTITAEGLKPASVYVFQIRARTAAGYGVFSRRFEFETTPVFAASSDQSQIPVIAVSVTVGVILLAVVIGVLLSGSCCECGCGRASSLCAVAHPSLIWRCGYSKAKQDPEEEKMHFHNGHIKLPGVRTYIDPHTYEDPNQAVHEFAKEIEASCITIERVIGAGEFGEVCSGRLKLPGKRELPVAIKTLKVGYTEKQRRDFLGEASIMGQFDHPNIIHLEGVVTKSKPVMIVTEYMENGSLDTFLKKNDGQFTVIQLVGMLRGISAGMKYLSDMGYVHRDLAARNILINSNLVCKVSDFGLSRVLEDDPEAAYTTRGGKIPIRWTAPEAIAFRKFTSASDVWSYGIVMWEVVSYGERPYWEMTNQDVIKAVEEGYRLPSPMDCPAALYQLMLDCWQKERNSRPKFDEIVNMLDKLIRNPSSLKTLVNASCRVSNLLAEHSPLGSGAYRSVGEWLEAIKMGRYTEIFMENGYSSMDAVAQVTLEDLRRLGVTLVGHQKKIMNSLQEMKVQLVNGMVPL

COc1cc2c(Oc3ccc(-c4nc5ccccc5s4)cc3)ncnc2cc1OCCCN1CCN(C)CC1
residual activity [1]: 103% | residual activity [2]: 429% | residual activity [3]: 377% | residual activity [4]: 94% | residual activity [5]: 12% | residual activity [6]: 50% | residual activity [7]: 100% | residual activity [8]: 96% | residual activity [9]: 87% | residual activity [10]: 118% | residual activity [11]: 97%

COc1cc2c(Oc3ccc(-c4nc5ccccc5s4)cc3F)ncnc2cc1OCCCN1CCN(C)CC1
residual activity [1]: 95% | residual activity [2]: 124% | residual activity [3]: 215% | residual activity [4]: 96% | residual activity [5]: 27% | residual activity [6]: 36% | residual activity [7]: 101% | residual activity [8]: 97% | residual activity [9]: 96% | residual activity [10]: 98% | residual activity [11]: 93%

COc1cc2c(Oc3ccc(-c4nc5ccccc5s4)cc3)ncnc2cc1OCCCN1CCCC1
residual activity [1]: 119% | residual activity [2]: 223% | residual activity [3]: 267% | residual activity [4]: 114% | residual activity [5]: 6% | residual activity [6]: 58% | residual activity [7]: 96% | residual activity [8]: 95% | residual activity [9]: 81% | residual activity [10]: 100% | residual activity [11]: 99%
